According to the NIST ThermoML archive (doi:10.1016/j.jct.2011.08.016):

Assay: xn = mol fraction of the nth substance listed
Settings: Liquid, Vibrating tube method

CCCCCCCCCC [decane] + CCCCCCC
Settings | mass density [kg/m3]
313.16 K, 1000 kPa, x2 = 0.0531 | 713.67
313.16 K, 1000 kPa, x2 = 0.2594 | 706.37
313.16 K, 2000 kPa, x2 = 0.0531 | 714.44
313.16 K, 2000 kPa, x2 = 0.2594 | 707.17
313.16 K, 3000 kPa, x2 = 0.0531 | 715.27
313.16 K, 3000 kPa, x2 = 0.2594 | 707.97
313.16 K, 4000 kPa, x2 = 0.0531 | 716.08
313.16 K, 4000 kPa, x2 = 0.2594 | 708.78
313.16 K, 5000 kPa, x2 = 0.0531 | 716.94
313.16 K, 5000 kPa, x2 = 0.2594 | 709.65
313.16 K, 6000 kPa, x2 = 0.0531 | 717.67
313.16 K, 6000 kPa, x2 = 0.2594 | 710.5
313.16 K, 7000 kPa, x2 = 0.0531 | 718.51
313.16 K, 7000 kPa, x2 = 0.2594 | 711.35
313.16 K, 8000 kPa, x2 = 0.0531 | 719.34
313.16 K, 8000 kPa, x2 = 0.2594 | 712.2
313.16 K, 9000 kPa, x2 = 0.0531 | 720.13
313.16 K, 9000 kPa, x2 = 0.2594 | 713.05
313.16 K, 10000 kPa, x2 = 0.0531 | 721
313.16 K, 10000 kPa, x2 = 0.2594 | 713.88
313.16 K, 10990 kPa, x2 = 0.0531 | 721.8
313.16 K, 10990 kPa, x2 = 0.2594 | 714.7
313.16 K, 12000 kPa, x2 = 0.0531 | 722.62
313.16 K, 12000 kPa, x2 = 0.2594 | 715.51
313.16 K, 13000 kPa, x2 = 0.0531 | 723.44
313.16 K, 13000 kPa, x2 = 0.2594 | 716.3
313.16 K, 14000 kPa, x2 = 0.0531 | 724.26
313.16 K, 14000 kPa, x2 = 0.2594 | 717.1
313.16 K, 15000 kPa, x2 = 0.0531 | 725.05
313.16 K, 15000 kPa, x2 = 0.2594 | 717.87
313.16 K, 16000 kPa, x2 = 0.0531 | 725.84
313.16 K, 16000 kPa, x2 = 0.2594 | 718.64
313.16 K, 17000 kPa, x2 = 0.0531 | 726.57
313.16 K, 17000 kPa, x2 = 0.2594 | 719.39
313.16 K, 18000 kPa, x2 = 0.0531 | 727.29
313.16 K, 18000 kPa, x2 = 0.2594 | 720.16
313.16 K, 19000 kPa, x2 = 0.0531 | 728.02
313.16 K, 19000 kPa, x2 = 0.2594 | 720.88
313.16 K, 20000 kPa, x2 = 0.0531 | 728.71
313.16 K, 20000 kPa, x2 = 0.2594 | 721.61
313.16 K, 21000 kPa, x2 = 0.0531 | 729.39
313.16 K, 21000 kPa, x2 = 0.2594 | 722.32
313.16 K, 22000 kPa, x2 = 0.0531 | 730.07
313.16 K, 22000 kPa, x2 = 0.2594 | 723.02
313.16 K, 23000 kPa, x2 = 0.0531 | 730.67
313.16 K, 23000 kPa, x2 = 0.2594 | 723.68
313.16 K, 24000 kPa, x2 = 0.0531 | 731.27
313.16 K, 24000 kPa, x2 = 0.2594 | 724.32
313.16 K, 25000 kPa, x2 = 0.0531 | 731.84
313.16 K, 25000 kPa, x2 = 0.2594 | 724.92
313.17 K, 1000 kPa, x2 = 0.952 | 671.13
313.17 K, 2000 kPa, x2 = 0.952 | 672.16
313.17 K, 3000 kPa, x2 = 0.952 | 673.18
313.17 K, 4000 kPa, x2 = 0.952 | 674.17
313.17 K, 5000 kPa, x2 = 0.952 | 675.18
313.17 K, 6000 kPa, x2 = 0.952 | 676.18
313.17 K, 7000 kPa, x2 = 0.952 | 677.15
313.17 K, 8000 kPa, x2 = 0.952 | 678.12
313.17 K, 9000 kPa, x2 = 0.952 | 679.08
313.17 K, 10000 kPa, x2 = 0.952 | 680.03
313.17 K, 10990 kPa, x2 = 0.952 | 680.95
313.17 K, 12000 kPa, x2 = 0.952 | 681.86
313.17 K, 13000 kPa, x2 = 0.952 | 682.77
313.17 K, 14000 kPa, x2 = 0.952 | 683.65
313.17 K, 15000 kPa, x2 = 0.952 | 684.52
313.17 K, 16000 kPa, x2 = 0.952 | 685.39
313.17 K, 17000 kPa, x2 = 0.952 | 686.24
313.17 K, 18000 kPa, x2 = 0.952 | 687.08
313.17 K, 19000 kPa, x2 = 0.952 | 687.9
313.17 K, 20000 kPa, x2 = 0.952 | 688.71
313.17 K, 21000 kPa, x2 = 0.952 | 689.52
313.17 K, 22000 kPa, x2 = 0.952 | 690.29
313.17 K, 23000 kPa, x2 = 0.952 | 691.05
313.17 K, 24000 kPa, x2 = 0.952 | 691.82
313.17 K, 25000 kPa, x2 = 0.952 | 692.57
313.18 K, 1000 kPa, x2 = 0.5219 | 695.19
313.18 K, 1000 kPa, x2 = 0.777 | 681.87
313.18 K, 2000 kPa, x2 = 0.5219 | 696.01
313.18 K, 2000 kPa, x2 = 0.777 | 682.77
313.18 K, 3000 kPa, x2 = 0.5219 | 696.84
313.18 K, 3000 kPa, x2 = 0.777 | 683.7
313.18 K, 4000 kPa, x2 = 0.5219 | 697.74
313.18 K, 4000 kPa, x2 = 0.777 | 684.64
313.18 K, 5000 kPa, x2 = 0.5219 | 698.6
313.18 K, 5000 kPa, x2 = 0.777 | 685.58
313.18 K, 6000 kPa, x2 = 0.5219 | 699.5
313.18 K, 6000 kPa, x2 = 0.777 | 686.52
313.18 K, 7000 kPa, x2 = 0.5219 | 700.44
313.18 K, 7000 kPa, x2 = 0.777 | 687.47
313.18 K, 8000 kPa, x2 = 0.5219 | 701.28
313.18 K, 8000 kPa, x2 = 0.777 | 688.4
313.18 K, 9000 kPa, x2 = 0.5219 | 702.17
313.18 K, 9000 kPa, x2 = 0.777 | 689.32
